Measurements as given in US20240374737A1, “ERK5 DEGRADERS AND USES THEREOF” (DANA-FARBER CANCER INSTITUTE, INC., priority 2021, published 2024).

Key:
ERK5 [1] = target: T1, ERK5 (Homo sapiens, UniProt Q13164); test: Multiplexed tandem mass tag quantitative mass spectrometry proteomics in Molt4 cells; assay type: cell-based; conditions: 100 nM, 5 hours, vs DMSO vehicle
T1 construct: endogenous in cells; host or cells: Molt4 cells
Protocol: FIG. 3 is a scatterplot that depicts the change in relative protein abundance of compound 2 (100 nM, 5 h)-treated MOLT4 cells compared with DMSO vehicle control-treated cells. Protein abundance measurements were made using tandem mass tag quantitative mass spectrometry. The log 2fold change (log 2FC) is shown on the y axis and negative log 10p value (−log 10p value) on the x axis.

ERK5 [2] = target: T1, ERK5; test: ERK5 degradation immunoblot in Molt4 cells; assay type: cell-based; conditions: for ERK5 degradation (immunoblot): 0.1 μM or 1 μM; for ERK5 degradation (immunoblot) / concentration at which ERK5 degradation is seen (as low as / up to): 5 hours
Protocol: Molt4 cells were maintained in RPMI 1640 supplemented with 10% FBS and 100 U/mL Penicillin-Streptomycin at 37° C. in the presence of 5% CO2. […] The cells were then lysed with RIPA buffer containing phosphatase/protease inhibitor, and cell extracts were precleared by centrifugation at 21000×g for 5 minutes at 4° C. The Pierce BCA protein assay kit was used to assess protein lysate concentration and normalized using SDS sample buffer. Lysates were resolved on 4-12% Tris-Base gels and transferred to an Immuno-Blot PVDF membrane. The membrane was blocked for 1 hour, then incubated with primary antibodies against ERK5 (Cell Signaling) and j-Actin (Cell Signaling). The next day, membranes were washed with TBS-T, then incubated at room temperature for 1 hour with IRDye@800-labeled goat anti-rabbit IgG and IRDye@800-labeled goat anti-mouse IgG (LI-COR) secondary antibodies. The membranes were detected on Odyssey® CLx system.

T1 sequence (Q13164 whole entry): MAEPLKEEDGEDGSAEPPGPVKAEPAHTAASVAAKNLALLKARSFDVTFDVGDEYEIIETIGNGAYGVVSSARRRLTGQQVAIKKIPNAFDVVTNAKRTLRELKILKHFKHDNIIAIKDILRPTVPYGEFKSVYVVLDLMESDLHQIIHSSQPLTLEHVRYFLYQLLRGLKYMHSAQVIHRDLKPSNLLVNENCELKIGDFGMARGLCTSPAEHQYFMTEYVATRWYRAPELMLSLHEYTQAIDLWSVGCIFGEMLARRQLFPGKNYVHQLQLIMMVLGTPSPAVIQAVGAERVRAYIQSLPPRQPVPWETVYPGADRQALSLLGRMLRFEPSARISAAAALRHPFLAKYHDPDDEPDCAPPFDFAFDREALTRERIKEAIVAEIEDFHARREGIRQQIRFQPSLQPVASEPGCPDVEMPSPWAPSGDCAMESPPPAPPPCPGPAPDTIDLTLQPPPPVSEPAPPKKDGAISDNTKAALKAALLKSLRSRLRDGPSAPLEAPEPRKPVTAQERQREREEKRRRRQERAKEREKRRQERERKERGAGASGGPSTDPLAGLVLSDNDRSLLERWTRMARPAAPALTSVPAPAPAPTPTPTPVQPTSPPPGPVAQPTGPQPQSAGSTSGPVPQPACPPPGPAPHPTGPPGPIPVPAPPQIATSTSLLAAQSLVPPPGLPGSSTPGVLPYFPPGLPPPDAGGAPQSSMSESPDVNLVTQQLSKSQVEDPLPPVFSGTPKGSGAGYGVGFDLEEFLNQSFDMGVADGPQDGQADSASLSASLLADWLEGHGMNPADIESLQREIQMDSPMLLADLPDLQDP

time of treatment within which ERK5 degradation is induced (ERK5 [2]; 0.1 μM and 1 μM, time course 1 h, 2 h, 3 h, 4 h) | VHL dependence of ERK5 degradation (ERK5 [2]; 5 h, compared with negative control) | concentration at which ERK5 degradation is seen (as low as / up to) (ERK5 [2]) | concentration at which ERK5 degradation is induced (as low as) (ERK5 [2]; 5 hours of treatment) | Compound | change in relative protein abundance (proteome-wide selectivity) (ERK5 [1]) | ERK5 degradation (immunoblot) (ERK5 [2])
≤ 2 h | degraded ERK5 in a VHL-dependent manner | ≤ 0.05 µM | ≤ 50 nM | Cc1ncsc1-c1ccc([C@H](C)NC(=O)[C@@H]2C[C@@H](O)CN2C(=O)[C@@H](NC(=O)CCCCCN2CCN(c3ccc4c(C5CCN(C(=O)c6ccc(OC(F)(F)F)cc6N)CC5)ncnc4c3)CC2)C(C)(C)C)cc1 [compound 2, (2S,4R)-1-((S)-2-(6-(4-(4-(1-(2-amino-4-(trifluoromethoxy)benzoyl)piperidin-4-yl)quinazolin-7-yl)piperazin-1-yl)hexanamido)-3,3-dimethylbutanoyl)-4-hydroxy-N—((S)-1-(4-(4-methylthiazol-5-yl)phenyl)ethyl)pyrrolidine-2-carboxamide] | significant downregulation of only ERK5 protein levels | potently degraded ERK5
 |  | > 5 µM |  | Cc1ncsc1-c1ccc([C@H](C)NC(=O)[C@H]2C[C@H](O)CN2C(=O)[C@@H](NC(=O)CCCCCN2CCN(c3ccc4c(C5CCN(C(=O)c6ccc(OC(F)(F)F)cc6N)CC5)ncnc4c3)CC2)C(C)(C)C)cc1 [compound 13, (2R,4S)-1-((S)-2-(6-(4-(4-(1-(2-amino-4-(trifluoromethoxy)benzoyl)piperidin-4-yl)quinazolin-7-yl)piperazin-1-yl)hexanamido)-3,3-dimethylbutanoyl)-4-hydroxy-N—((S)-1-(4-(4-methylthiazol-5-yl)phenyl)ethyl)pyrrolidine-2-carboxamide, reference compound] |  | did not recruit the VHL E3 ligase or induce ERK5 degradation
